Assay results reported in patent publication US7217702B2, “Selective antagonists of A2A adenosine receptors” (Adenosine Therapeutics, LLC, priority 2004, dated 2007).

Columns and labels:
A1AR = biological target: T1, A1AR (Homo sapiens, UniProt P30542); test: Binding affinity of A2AAR ligands, radioligand displacement at A1AR; conditions: for selectivity ratio vs. the A2AAR, A1AR: number in parentheses
T1 sequence (P30542 1-326): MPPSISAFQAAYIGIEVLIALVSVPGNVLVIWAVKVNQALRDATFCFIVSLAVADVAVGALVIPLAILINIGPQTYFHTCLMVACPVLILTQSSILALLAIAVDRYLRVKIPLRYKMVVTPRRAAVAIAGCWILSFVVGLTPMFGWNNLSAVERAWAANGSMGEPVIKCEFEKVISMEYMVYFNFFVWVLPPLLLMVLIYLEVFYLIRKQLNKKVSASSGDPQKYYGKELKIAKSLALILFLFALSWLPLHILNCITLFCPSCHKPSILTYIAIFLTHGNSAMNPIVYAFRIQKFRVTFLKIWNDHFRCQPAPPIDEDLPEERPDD

A2A adenosine receptor = A2A adenosine receptor (Homo sapiens, UniProt P29274); test: Human Ki of the compound tables; type: binding; conditions: receptor subtype not given
A3AR = biological target: T2, A3AR (Homo sapiens, UniProt P0DMS8); test: Binding affinity of A2AAR ligands, radioligand displacement at A3AR; conditions: for displacement of radioligand, A3AR: 1 μM candidate ligand; for selectivity ratio vs. the A2AAR, A3AR: number in parentheses
T2 sequence (P0DMS8 1-318): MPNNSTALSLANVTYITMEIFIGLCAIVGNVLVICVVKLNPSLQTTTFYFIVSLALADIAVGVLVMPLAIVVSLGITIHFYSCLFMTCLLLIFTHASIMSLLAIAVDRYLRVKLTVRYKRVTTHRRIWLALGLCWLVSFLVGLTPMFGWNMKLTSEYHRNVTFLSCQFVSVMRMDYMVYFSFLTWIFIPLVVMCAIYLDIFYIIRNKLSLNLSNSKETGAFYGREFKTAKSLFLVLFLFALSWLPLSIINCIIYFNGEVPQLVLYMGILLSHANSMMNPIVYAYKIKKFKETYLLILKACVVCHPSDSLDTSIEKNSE

A2BAR = biological target: T3, A2BAR (Homo sapiens, UniProt P29275); test: Binding affinity of A2AAR ligands, radioligand displacement at A2BAR; conditions: for displacement of radioligand, A2BAR: 1 μM candidate ligand; for selectivity ratio vs. the A2AAR, A2BAR: number in parentheses
T3 sequence (P29275 1-332): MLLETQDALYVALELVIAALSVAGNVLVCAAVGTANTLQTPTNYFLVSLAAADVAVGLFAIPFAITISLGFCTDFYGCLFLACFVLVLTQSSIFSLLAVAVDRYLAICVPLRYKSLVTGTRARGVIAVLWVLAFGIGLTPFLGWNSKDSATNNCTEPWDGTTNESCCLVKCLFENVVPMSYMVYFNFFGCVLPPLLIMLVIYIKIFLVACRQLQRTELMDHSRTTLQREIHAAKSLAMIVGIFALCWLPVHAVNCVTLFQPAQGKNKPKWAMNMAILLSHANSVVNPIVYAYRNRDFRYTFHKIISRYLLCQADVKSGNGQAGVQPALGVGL

A2AAR = A2AAR (Homo sapiens, UniProt P29274); test: Binding affinity of A2AAR ligands, radioligand displacement at A2AAR
[1] = cited from earlier work
[2] = in vivo; cited from earlier work
PD patients = conditions: 20–80 mg/day; cited from earlier work
rats = conditions: cited from earlier work
[3] = test system: A2A receptor KO and WT mice; test: Motor stimulant effect in A2A receptor KO mice and WT littermates; type: in vivo, mouse; conditions: 15 mg/kg, FIG. 2
Protocol: We validated that ATL-2 acts on the A2A receptor to stimulate motor activity by using A2AR KO mice (in both mixed (129sv X C57BL/6) as well as congenic (C57BL/6 genetic background) developed over the last several years. We evaluated the motor stimulant effect of ATL-2 in A2A receptor KO and their WT littermates. WT and A2A KO mice (n=4) were habituated for 60 minutes and treated with ATL-2 (15 mg/kg) and recorded for motor activity for 120 minutes.

[4] = test system: normal and dopamine-depleted mice; test: Dose response of motor activity in normal and MPTP dopamine-depleted mice; type: in vivo, mouse; conditions: i.p.
Protocol: In the set of experiments, we perform a dose response study of ATL-2 in stimulating motor activity in normal mice, and then we further extend this to dopamine-depleted mice. Adult male mice are habituated for 120 minutes and treated (i.p.) with saline or varying doses of compound, and their locomotor activity recorded for 120 minutes.
In a second set of experiments, we utilize the MPTP treatment paradigm to create animal model of PD by severely depleting dopamine in mice. We use a single MPTP treatment paradigm (40 mg/kg) which has been reproducibly reducing dopamine to 30–40% of normal dopamine contents in striatum in our previous studies.^35,74 Adult male mice (˜[…]) are treated with single dose of MPTP (40 mg/kg). Thirty minutes after the MPTP treatment, mice are injected (i.p.) with vehicle or compounds of the invention at the same doses discussed above. Their motor activity is recorded for 180 minutes.

dopamine-depleted mice = test: Synergy with L-dopa on locomotor activity in MPTP dopamine-depleted mice; type: in vivo, mouse; conditions: MPTP-treated mice
Protocol: We further tested the ability of these compounds to synergistically enhance motor function in conjunction with L-dopa, the standard therapy. Mice are injected (i.p.) with MPTP at a dose (1–2.5 mg/kg) that markedly decreases striatal dopamine levels. […] Locomotor behavior is monitored for 120 min before and after the treatment.

C57BL/6 mice = test: Motor stimulation in normal mice, locomotor activity cage system; type: in vivo, mouse
Protocol: The ability of compounds to stimulate motor activity in normal mice was measured using a simple, computer-assisted locomotor activity cage system. C57BL/6 mice (n═6–8 purchased from the Jackson's lab) were habituated for the testing environment for 120 minute prior to drug treatment. The test compounds were dissolved in vehicle (10% DMSO, 10% castrol oil EL-620 and 80% saline). The drug was administrated intraperitoneally at a dose of 15 mg/kg, and locomotor activity was recorded for 2 hours before and after drug administration.

[5] = test system: unilateral 6-OHDA-lesioned mice; test: L-dopa-induced locomotor sensitization in unilateral 6-OHDA-lesioned mice; type: in vivo, mouse; conditions: 3 or 10 mg/kg i.p. before daily L-dopa
Protocol: The ability of ATL-2 to modify the development of L-dopa-induced locomotor sensitization in hemiparkinsonian mice are tested. C57BL/6 mice (from the Jackson's lab, Bar Harbor, […].) are lesioned with 6-OHDA by unilateral intrastriatal using a standard lesioning protocol. Seven days after the 6-OHDA (or MPP^+) treatment, mice are injected with L-dopa (2.0 mg/kg, daily) for 14 days. Five min prior to each L-dopa treatment, the mice receive intraperitoneal pretreatment with: (1) vehicle, (2) ATL-2 (3 mg/kg) or (3) ATL-2 (10 mg/kg). […] Rotational responses to L-dopa are recorded on the days 1, 3, 5, 7, 10 and 15. Following the behavioral measurement, mice may be sacrificed and their brains sectioned through striatum and substantia nigra. Striatal enkephalin mRNA levels are determined by in situ hybridization histochemistry. Similarly, DAT (^3H-mazindol) binding is measured by receptor autoradiography to ensure successful and equivalent lesions among different experimental groups.

[6] = normal C57BL/6 mice, 15 mg/kg intraperitoneally, FIG. 1

Sequence of A2A adenosine receptor (P29274 whole entry): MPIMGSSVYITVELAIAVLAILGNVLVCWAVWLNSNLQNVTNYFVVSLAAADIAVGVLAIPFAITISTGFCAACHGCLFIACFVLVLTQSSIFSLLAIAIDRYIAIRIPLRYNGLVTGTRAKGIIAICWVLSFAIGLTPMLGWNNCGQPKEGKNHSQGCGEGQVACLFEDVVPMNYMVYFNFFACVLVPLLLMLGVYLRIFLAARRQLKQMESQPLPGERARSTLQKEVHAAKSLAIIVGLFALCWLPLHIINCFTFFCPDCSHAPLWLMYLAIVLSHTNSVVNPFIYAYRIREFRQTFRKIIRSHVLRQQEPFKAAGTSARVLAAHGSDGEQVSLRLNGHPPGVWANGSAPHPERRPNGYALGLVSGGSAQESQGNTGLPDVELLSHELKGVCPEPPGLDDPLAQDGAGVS
Sequence of A2AAR (P29274 whole entry): as above

SMILES	Ki (A1AR)	selectivity ratio vs. the A2AAR, A1AR (A1AR)	Ki (A2A adenosine receptor)	Ki (A2AAR)	Ki (A3AR)	selectivity ratio vs. the A2AAR, A3AR (A3AR)	Ki (A2BAR)	selectivity ratio vs. the A2AAR, A2BAR (A2BAR)	other results
CCC(CC)Nc1nc(C#C[C@]2(O)CCC[C@@H](C)C2)nc2c1ncn2C [Compound 11, 2-{2-[1(S)-Hydroxy-3(R)-methyl-1-cyclohexyl]ethyn-1-yl}-9-methyl-N6-(3-pentyl)adenine]	172 nM	1.3	< 500 nM	137 nM					displacement of radioligand, A3AR (A3AR): 30%; displacement of radioligand, A2BAR (A2BAR): 20%
Nc1nc2c(cnn2CCc2ccccc2)c2nc(-c3ccco3)nn12 [SCH58261]									solubility [1]: very poorly soluble
Nc1nc(C#CC2(O)C3CC4CC(C3)CC2C4)nc2c1ncn2C1CCCC1 (stereo not drawn) [Compound 50]	> 325 nM	> 27	< 100 nM	12 nM					displacement of radioligand, A3AR (A3AR): 40%; displacement of radioligand, A2BAR (A2BAR): 40%
Nc1nc(NCCc2ccc(O)cc2)nc2nc(-c3ccco3)nn12 [ZM241385]									bioavailability [2]: poor bioavailability
C#CCn1cnc2c(NC(CC)CC)nc(C#C[C@]3(O)CCC[C@@H](C)C3)nc21 [Compound 17, 2-{2-[1(S)-Hydroxy-3(R)-methyl-1-cyclohexyl]ethyn-1-yl}-N6-(3-pentyl)-9-(propargyl)adenine]	11 nM	2	< 100 nM	5 nM	188 nM	38	147 nM	29	
CCn1c(=O)c2c(nc(/C=C/c3ccc(OC)c(OC)c3)n2C)n(CC)c1=O [KW6002]									tolerability in clinical trial (PD patients): well tolerated; toxicity (rats): long-term toxicity
C#CCn1cnc2c(N)nc(C#C[C@]3(O)CCC[C@@H](C)C3)nc21 [Compound 2, 2-{2-[1(S)-Hydroxy-3(R)-methyl-1-cyclohexyl]ethyn-1-yl}-9-propargyladenine]	4.6 nM	5	< 100 nM	0.95 nM	599 nM	630	50 nM		motor stimulation in A2A receptor KO mice ([3]; A2A receptor KO mice): absent; motor activity in WT mice ([3]; WT littermates): produced motor activity; motor function, dose dependence [4]: Enhances Motor Function in a Dose-dependent Manner; shift of the dose-response curve with L-dopa (dopamine-depleted mice): left-shift; effect with L-dopa in stimulating locomotor activity (dopamine-depleted mice; L-dopa 25 mg/kg + ATL-2 0.3-10 mg/kg): synergistic effect; motor stimulant effect compared with other A2AR antagonists such as SCH58261 and KW6002 (C57BL/6 mice; from previous experience with other A2AR antagonists): comparable or stronger; duration of motor stimulation (C57BL/6 mice; [6]): about 60 minutes; motor stimulation (locomotor activity) (C57BL/6 mice; [6]): strong motor stimulation; time to peak of motor stimulation (C57BL/6 mice; [6]): ≤ 20 min; development of L-dopa-induced locomotor sensitization [5]: delays or prevent the development of locomotor sensitization
C#CCn1cnc2c(N)nc(C#CC3(O)C4CC5CC(C4)CC3C5)nc21 (stereo not drawn) [Compound 51]	25 nM	16	< 100 nM	1.6 nM	> 650 nM	> 400	155 nM	97	
C[C@@H]1CCC[C@@](O)(C#Cc2nc(N)c3ncn(C4CCCC4)c3n2)C1 [Compound 3, 9-Cyclopentyl-2-{2-[1(S)-hydroxy-3(R)-methyl-1-cyclohexyl]ethyn-1-yl}adenine]	368 nM	37	< 100 nM	10 nM	633 nM	63	357 nM	36	
